According to US11072624B2, “Synthesis of nucleoside 5′-triphosphates and their derivatives” (priority 2010, dated 2021):

Target: T1, Klenow fragment exo(−), Kf- (Escherichia coli, UniProt P00582, D355A/E357A)
T1 construct: into DNA by Klenow fragment exo(−), Kf-
Test: Primer extension reaction of chemically synthesized dNTPs into DNA by Klenow polymerase
Type: biochemical
Settings: single test dNTP plus the three other standard dNTPs (lanes 4, 6, 8, 10); 0.1 mM dNTPs, 37° C., 1 h, 19% PAGE
Protocol: Primer, P was end labeled using polynucleotide kinase and [γ-^32P] ATP. Polymerization reactions were performed with 3.5 μM primer and 5 μM template and equimolar ratios of all dNTPs (0.1 mM) and incubated with 0.05 […] at 37° C. for 1 h. Reaction was analyzed by 19% polyacrylamide gel electrophoresis. Lane 1: primer, P and all dNTPs but no Kf-; lane 2: P plus template, T and all dNTPs (Epicentre, Inc.) with Kf-; lane 3: P/T and all dNTPs except dATP with Kf-; lane 4: P/T and test dATP, dCTP, dGTP, and TTP with Kf-; lane 5: P/T and all dNTPs except dCTP with Kf-; lane 6: P/T and dATP, test dCTP, dGTP and TTP with Kf-; lane 7: P/T and all dNTPs except dGTP with Kf-; lane 8: P/T and dATP, dCTP, test dGTP and TTP with Kf-; lane 9: P/T and all dNTPs except TTP with Kf-; lane 10: P/T and dATP, dCTP, dGTP and test TTP with Kf-; lane 11: P/T and all test dNTPs with Kf-; lane 12: primer, P.
For the polymerase extension reaction, the primer (SEQ ID NO: 1; P: 5′-d-GCGTAATACGACTCACTATAG-3′) was radiolabeled with [γ-^32P] ATP at the 5′-position and incubated with the template (SEQ ID NO: 2; 3′-d-[…]-5′) to allow examination of a test nucleotide (dATP, dCTP, dGTP or TTP), see FIG. 3. The polymerase reaction was conducted in the presence of the Klenow polymerase (0.05 U/μL). […] More convincingly, in a reaction containing each of the test triphosphates (lane 11), full-length product (SEQ ID NO: 3) similar to the standard polymerization reaction (lane 2) was observed.

T1 sequence (P00582 324-928 D355A/E357A): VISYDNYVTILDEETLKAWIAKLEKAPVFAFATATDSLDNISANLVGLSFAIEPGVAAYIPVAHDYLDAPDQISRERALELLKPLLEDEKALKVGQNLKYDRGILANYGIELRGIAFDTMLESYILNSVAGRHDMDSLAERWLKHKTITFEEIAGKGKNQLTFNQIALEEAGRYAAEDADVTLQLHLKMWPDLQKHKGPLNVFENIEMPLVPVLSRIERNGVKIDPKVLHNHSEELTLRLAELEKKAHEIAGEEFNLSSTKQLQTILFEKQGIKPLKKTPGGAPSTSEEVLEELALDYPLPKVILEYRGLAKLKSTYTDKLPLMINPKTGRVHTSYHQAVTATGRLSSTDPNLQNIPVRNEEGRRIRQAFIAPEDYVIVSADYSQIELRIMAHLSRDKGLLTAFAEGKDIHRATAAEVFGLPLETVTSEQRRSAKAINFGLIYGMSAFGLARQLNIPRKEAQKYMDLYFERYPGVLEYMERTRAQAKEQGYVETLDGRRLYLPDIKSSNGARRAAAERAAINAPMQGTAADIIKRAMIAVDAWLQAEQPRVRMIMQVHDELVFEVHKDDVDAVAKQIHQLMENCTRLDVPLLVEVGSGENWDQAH

Row | SMILES | primer extension to the expected full-length (test dNTP as substrate for the Klenow polymerase)
1 | Cc1cn([C@H]2C[C@H](O)[C@@H](COP(=O)(O)OP(=O)(O)OP(=O)(O)O)O2)c(=O)[nH]c1=O [TTP] | efficiently extended the primer
2 | Nc1ncnc2c1ncn2[C@H]1C[C@H](O)[C@@H](COP(=O)(O)OP(=O)(O)OP(=O)(O)O)O1 [dATP] | efficiently extended the primer
3 | Nc1ccn([C@H]2C[C@H](O)[C@@H](COP(=O)(O)OP(=O)(O)OP(=O)(O)O)O2)c(=O)n1 [dCTP] | efficiently extended the primer
4 | Nc1nc2c(ncn2[C@H]2C[C@H](O)[C@@H](COP(=O)(O)OP(=O)(O)OP(=O)(O)O)O2)c(=O)[nH]1 [dGTP] | efficiently extended the primer
